In patent US20060257322A1, “Pharmaceutical agents that contain fluoroalkyl-containing metal complexes and epothilones” (priority 2005, published 2006):
Where “and” joins values, the source holds several entries; their conditions need not be identical. Identical values can stand only once. Like-named read-outs stand apart in the source and are kept apart here.

Assays:
[1] = format: in vivo, hairless mice; conditions: for Relative animal weights: day 0 (about 30-35 g) normalized to 1
Protocol: (§1) A549 lung tumors were induced in hairless mice (4×10^6 cells/30 μl of full medium). Animal weights and tumor surface areas/volumes were determined, and in this case, the tumor surface area or the tumor volume (based on an ellipsoid of revolution) was calculated. Length and width of the tumor were measured with vernier calipers. After reaching the size of a pea, the treatment was begun.
(§2) • (a) 20 mmol of Gd/l of the Gd complex compound as mentioned in Example 1 or 3 (as a comparison solution=Blank reading) • (b) 1.5 mmol/l of the epothilone as mentioned in Example 1 or 3, in aqueous hydroxypropyl-β-cyclodextrin solution (prior art) (For the production of formulations in the prior art, see WO 99/07692 and WO 00/4902 1) • (c) Formulation of Example 1 or 3 (formulation according to the invention) Dosages: • (a) 100 μmol of Gd/kg of body weight • (b) 11 μmol/kg or 18 μmol/kg of body weight • (c) 100 μmol of Gd/kg+11 (or 18) μmol of epothilone/kg of body weight (corresponds to the ratio in the formulation of Example 1 or 3).
(§3) The animal weights and tumor sizes were measured over a period of 20 days after intravenous administration.

[2] = test system: A549 lung tumors; format: in vivo, hairless mice; conditions: day 0 normalized to 1
Protocol: as §1, §2, §3

[3] = Day 5, 18 μmol of epothilone/kg of body weight i.v. (formulations: plus 100 μmol of Gd/kg)
[4] = Day 11, 18 μmol of epothilone/kg of body weight i.v. (formulations: plus 100 μmol of Gd/kg)
[5] = Day 15, 18 μmol of epothilone/kg of body weight i.v. (formulations: plus 100 μmol of Gd/kg)
[6] = Day 20, 18 μmol of epothilone/kg of body weight i.v. (formulations: plus 100 μmol of Gd/kg)
[7] = Day 5, 11 μmol of epothilone/kg of body weight i.v. (formulations: plus 100 μmol of Gd/kg)
[8] = Day 11, 11 μmol of epothilone/kg of body weight i.v. (formulations: plus 100 μmol of Gd/kg)
[9] = Day 15, 11 μmol of epothilone/kg of body weight i.v. (formulations: plus 100 μmol of Gd/kg)
[10] = Day 20, 11 μmol of epothilone/kg of body weight i.v. (formulations: plus 100 μmol of Gd/kg)
[11] = first days after substance administration, 11 μmol of epothilone/kg of body weight i.v.
[12] = first days after substance administration, 18 μmol of epothilone/kg of body weight i.v.

Row | Compound | Relative animal weights (in words) ([1]; mouse, in vivo, iv) | Relative tumor surface area [2, 3] | Relative tumor surface area [2, 4] | Relative tumor surface area [2, 5] | Relative tumor surface area [2, 6] | Relative animal weights [1, 7] | Relative animal weights [1, 3] | Relative animal weights [1, 8] | Relative animal weights [1, 4] | Relative animal weights [1, 9] | Relative animal weights [1, 5] | Relative animal weights [1, 10] | Relative animal weights [1, 6] | Relative animal weights (in words) [1, 11] | Relative animal weights (in words) [1, 12] | Relative tumor surface area [2, 7] | Relative tumor surface area [2, 8] | Relative tumor surface area [2, 9] | Relative tumor surface area [2, 10]
1 | C=CC[C@H]1C(=O)C(C)(C)[C@@H](O)CC(=O)O[C@H](/C(C)=C/c2csc(C)n2)C/C=C(/C)CCC[C@H](C)[C@@H]1O [Epothilone K, (4S,7R,8S,9S,13(Z),16S(E))-4,8-Dihydroxy-16-(1-methyl-2-(2-methylthiazol-4-yl)ethenyl)-1-oxa-5,5,9,13-tetramethyl-7-(prop-2-en-1-yl)-cyclohexadec-13-ene-2,6-dione] | small weight loss | 1.1 ± 0.1 | 1.3 ± 0.3 and 1.3 ± 0.1 | 1.5 ± 0.2 | 1.6 ± 0.1 and 1.5 ± 0.2 | – | – | – | – | – | – | – | – | – | – | – | – | – | –
2 | C=CC[C@H]1C(=O)C(C)(C)[C@@H](O)CC(=O)O[C@H](c2ccc3sc(C)nc3c2)C[C@@H]2O[C@]2(C)CCC[C@H](C)[C@@H]1O [Epothilone F, (1S,3S,7S,10R,11S,12S,16R)-7,11-Dihydroxy-3-(2-methylbenzothiazol-5-yl)-10-(prop-2-en-1-yl)-8,8,12,16-tetramethyl-4,17-dioxabicyclo[14.1.0]heptadecane-5,9-dione] | – | 1.1 ± 0.1 | 1.2 ± 0.2 | 1.4 ± 0.1 | 1.5 ± 0.2 | 0.94 | 0.92 | 0.97 | 0.93 | 0.97 | 0.97 | 0.96 | 0.99 | small weight loss | small weight loss | 1.1 ± 0.1 | 1.3 ± 0.2 | 1.5 ± 0.3 | 1.5 ± 0.4
3 | CC[C@H]1C(=O)C(C)(C)[C@@H](O)CC(=O)O[C@H](/C(F)=C/c2ccccn2)C/C=C(/C)CCC[C@H](C)[C@@H]1O [Epothilone G, 4S,7R,8S,9S,13(Z),16S(Z)-4,8-Dihydroxy-16-(1-fluoro-2-(2-pyridyl)ethenyl)-7-ethyl-1-oxa-5,5,9,13-tetramethyl-cyclohexadec-13-ene-2,6-dione] | – | 1.1 ± 0.1 | 1.3 ± 0.4 | 1.5 ± 0.3 | 1.6 ± 0.2 | 0.94 | 0.945 | 0.97 | 0.97 | 0.95 | 0.97 | 0.96 | 0.98 | small weight loss | small weight loss | 1.1 ± 0.1 | 1.3 ± 0.1 | 1.5 ± 0.3 | 1.6 ± 0.2
4 | Cc1nc(/C=C(\Cl)[C@@H]2C[C@@H]3O[C@]3(C)CCC[C@H](C)[C@H](O)[C@@H](C)C(=O)C(C)(C)[C@@H](O)CC(=O)O2)cs1 [Epothilone C, (1S,3S(Z),7S,10R,11S,12S,16R)-7,11-Dihydroxy-3-(1-chloro-2-(2-methyl-4-thiazolyl)ethenyl)-8,8,10,12,16-pentamethyl-4,17-dioxabicyclo[14.1.0]heptadecane-5,9-dione] | small weight loss | 1.1 ± 0.1 | 1.3 ± 0.3 | 1.6 ± 0.3 | 1.5 ± 0.2 | – | – | – | – | – | – | – | – | – | – | 1.1 ± 0.1 | 1.4 ± 0.3 | 1.5 ± 0.3 | 1.5 ± 0.2
5 | C#CCC[C@H]1C(=O)C(C)(C)[C@@H](O)CC(=O)O[C@H](/C(C)=C/c2ccccn2)C/C=C(/C)CCC[C@H](C)[C@@H]1O [Epothilone I, (4S,7R,8S,9S,13(Z),16S(E))-4,8-Dihydroxy-16-(1-methyl-2-(2-pyridyl)ethenyl)-1-oxa-5,5,9,13-tetramethyl-7-(but-3-in-1-yl)-cyclohexadec-13-ene-2,6-dione] | – | – | – | – | – | 0.93 | – | 0.97 | – | 0.97 | – | 0.98 | – | small weight loss | – | 1.2 ± 0.1 | 1.3 ± 0.3 | 1.4 ± 0.3 | 1.5 ± 0.1
6 | C#CC[C@H]1C(=O)C(C)(C)[C@@H](O)CC(=O)O[C@H](/C(F)=C/c2csc(C)n2)C/C=C(/C)CCC[C@H](C)[C@@H]1O [Epothilone L, (4S,7R,8S,9S,13(Z),16S(Z))-4,8-Dihydroxy-16-(1-fluoro-2-(2-methylthiazol-4-yl)ethenyl)-7-(prop-2-in-1-yl)-1-oxa-5,5,9,13-tetramethyl-cyclohexadec-13-ene-2,6-dione] | – | 1.1 ± 0.1 | 1.3 ± 0.2 | 1.5 ± 0.2 | 1.5 ± 0.1 | 0.93 | 0.94 | 0.96 | 0.95 | 0.97 | 0.97 | 0.98 | 0.96 | small weight loss | small weight loss | 1.1 ± 0.1 | 1.3 ± 0.1 | 1.5 ± 0.2 | 1.5 ± 0.2
7 | C#CC[C@H]1C(=O)C(C)(C)[C@@H](O)CC(=O)O[C@H](/C(F)=C/c2coc(C)n2)C/C=C(/C)CCC[C@H](C)[C@@H]1O [Epothilone N, (4S,7R,8S,9S,13(Z),16S(Z))-4,8-Dihydroxy-16-(1-fluoro-2-(2-methyloxazol-4-yl)ethenyl)-7-(prop-2-in-1-yl)-1-oxa-5,5,9,13-tetramethyl-cyclohexadec-13-ene-2,6-dione] | – | – | – | – | – | 0.94 | – | 0.97 | – | 0.98 | – | 0.96 | – | small weight loss | – | 1.1 ± 0.1 | 1.2 ± 0.2 | 1.5 ± 0.3 | 1.6 ± 0.4
